Experimental data taken from patent publication US20180125834A1, “METHODS OF TREATING BACTERIAL INFECTIONS AND FUNGAL INFECTIONS USING ENANTIOPURE DEUTERIUM-ENRICHED PIOGLITAZONE” (DeuteRx, LLC, priority 2015, published 2018).

Legend:
C2C12 cells = settings: 30 μM for 15, 30, or 90 min; 10 mM sodium pyruvate
Description: On the day before the assay, C2C12 cells were subcultured in XF96 microplates at a density of 20,000 cells per well. After overnight incubation (37° C., 5% CO2), the cells were washed 3 times with assay medium (Seahorse medium (Seahorse Bioscience, North Billerica, Mass.) containing 10 mM sodium pyruvate, pH 7.4). […] Incubation times of 15, 30, or 90 min were used prior to measurement of maximal respiration, i.e., until addition of FCCP. […] Maximal respiration as oxygen consumption rates (pmoles O2/min) was measured for each compound, at each concentration, and each time point in three separate experiments.

[1] = In vitro plasma stability, half-life of deuterated vs. protonated enantiomers (plasma species not given); type: in vitro ADME; settings: 37° C., t1/2=ln(2)/k from fitted rate constants
Description: (§1) The plasma samples were incubated at 37° C. in duplicate (anticoagulant: K3EDTA). […] Samples were placed at −80° C. until the study was complete. […] The vortexed samples were centrifuged and 50 μL of supernatant was dispensed in a 96-well plate.
(§2) The deuterium in both enantiomers, d-S and d-R, can be lost by D/H exchange to give both protonated enantiomers, h-S and h-R with rate constants kDRR, kDRS, kDSR, and kDSS. At the same time, the protonated enantiomers h-S and h-R can exchange with enantiomerization rate constants kRS and kSR. All four compounds can also degrade with potentially different degradation rate constants kdSd, kdRd, khSd, and khRd.
(§3) Human and mouse plasma data were analyzed independently. […] Data in each species was analyzed using a stepwise approach.
(§4) The step between calculated time points was minimized in order to minimize the local error (proportional to the square of the step size) and the global error (proportional to the step size).

[2] = In vitro stability (enantiomerization, D/H exchange) in C57BL/6 mouse plasma at 37° C.; type: in vitro ADME; settings: up to 32 h
Description: as §1, §2, §3, §4

[3] = In vitro stability (enantiomerization, D/H exchange) in human plasma at 37° C.; type: in vitro ADME; settings: up to 32 h
Description: as §1, §2, §3, §4

[4] = molecular target: T1, human recombinant monoamine oxidase B (Homo sapiens, UniProt P27338); experiment: Monoamine oxidase B (MAO-B) inhibition, luminescence assay; type: biochemical
T1 sequence (P27338 1-520): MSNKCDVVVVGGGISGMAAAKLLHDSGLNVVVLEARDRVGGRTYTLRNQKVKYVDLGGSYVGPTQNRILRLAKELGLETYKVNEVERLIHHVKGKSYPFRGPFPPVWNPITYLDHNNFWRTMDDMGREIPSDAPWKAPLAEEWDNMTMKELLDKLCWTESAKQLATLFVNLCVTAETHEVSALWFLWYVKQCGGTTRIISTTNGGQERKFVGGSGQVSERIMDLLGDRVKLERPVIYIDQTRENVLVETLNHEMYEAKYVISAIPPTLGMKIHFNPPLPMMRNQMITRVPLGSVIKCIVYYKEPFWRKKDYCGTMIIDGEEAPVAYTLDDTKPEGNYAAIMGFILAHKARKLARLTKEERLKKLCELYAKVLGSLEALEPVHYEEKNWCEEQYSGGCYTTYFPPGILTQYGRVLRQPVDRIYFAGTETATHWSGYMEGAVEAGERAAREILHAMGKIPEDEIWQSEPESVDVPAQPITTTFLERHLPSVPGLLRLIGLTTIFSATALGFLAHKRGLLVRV
Description: The mixtures were incubated at 22° C. for 5 min. Substrate (D-luciferin derivative) was added, and then the mixture was incubated at 37° C. for 60 min. The reaction was stopped by addition of the detection reagent containing luciferase. Luminescence was read after standing for 60 min at room temperature.
Results were expressed as a percentage of the luminescence of the control (enzyme+substrate). IC50 values were obtained by fitting experimental data (mean % luminescence as function of concentration) to the Hill equation with variable slope using non-linear regression analysis.

SMILES	maximal respiration as oxygen consumption rate (OCR) vs. vehicle-treated cells (C2C12 cells)	half-life of deuterated enantiomer vs. corresponding protonated enantiomer [1]	degradation (sum of peak areas vs. incubation time) [2]	degradation (sum of peak areas vs. incubation time) [3]	difference in inhibition efficacy between d-R-pio and d-S-pio [4]
CCc1ccc(CCOc2ccc(CC3SC(=O)NC3=O)cc2)nc1 (racemic) [h-rac-pio, rac-5-({p-[2-(5-Ethyl-2-pyridyl)ethoxy]phenyl}methyl)-1,3-thiazolidine-2,4-dione, reference compound]	inhibited maximal respiration	–	–	–	–
[2H][C@]1(Cc2ccc(OCCc3ccc(CC)cn3)cc2)SC(=O)NC1=O [d-R-pio, (R)-5-({p-[2-(5-Ethyl-2-pyridyl)ethoxy]phenyl}methyl)-(5-^2H)-1,3-thiazolidine-2,4-dione]	inhibited maximal respiration	approximately two-fold	negligible	negligible	greater than 5 fold
[2H][C@@]1(Cc2ccc(OCCc3ccc(CC)cn3)cc2)SC(=O)NC1=O [d-S-pio, (S)-5-({p-[2-(5-Ethyl-2-pyridyl)ethoxy]phenyl}methyl)-(5-^2H)-1,3-thiazolidine-2,4-dione]	no significant measurable effect	approximately the same as the half-life for h-S-pio	negligible	negligible	–
CCc1ccc(CCOc2ccc(C[C@H]3SC(=O)NC3=O)cc2)nc1 [h-R-pio, (R)-5-({p-[2-(5-ethyl-2-pyridyl)ethoxy]phenyl}methyl)-1,3-thiazolidine-2,4-dione, reference compound]	–	–	negligible	negligible	–
CCc1ccc(CCOc2ccc(C[C@@H]3SC(=O)NC3=O)cc2)nc1 [h-S-pio, (S)-5-({p-[2-(5-ethyl-2-pyridyl)ethoxy]phenyl}methyl)-1,3-thiazolidine-2,4-dione, reference compound]	–	–	negligible	negligible	–
